Assays:
[1] = system: naked oocytes (NO); assay: antagonistic oocyte assay (co-culture with FF-MAS); type: cell-based, mice; conditions: naked oocytes in Hx-medium with 5 μM FF-MAS in co-culture with test compound
Experimental: An antagonistic oocyte assay can be performed as follows:
20 Oocytes were obtained from immature female mice (C57BI/6J×DBA/2J F1-hybrids, Bomholtgaard, Denmark) weighing 13-16 grams, that were kept under controlled lighting and temperature. The mice received an intra-peritoneal injection of 0.2 ml gonadotropins (Gonal F, Serono, Solna, Sweden, containing 20 IU FSH, alternatively, Puregon, Organon, Swords, Ireland containing 20 IU FSH) and 48 hours later the animals were killed by cervical dislocation.
The ovaries were dissected out and the oocytes were isolated in Hx-medium (see below) under a stereo microscope by manual rupture of the follicles using a pair of 27 gauge needles. […]
By the end of the culture period, the number of oocytes with germinal vesicle (GV) or germinal vesicle breakdown (GVB) and those with polar body (PB) was counted using a stereo-microscope or an inverted microscope with differential interference contrast equipment. The percentage of oocytes with GVB+PB per total number of oocytes were calculated in the test cultures and in the control (positive and negative) culture groups. The relative inhibition of the test compound was calculated by the following formula: […]

[2] = system: oocytes; assay: agonistic oocyte assay (germinal vesicle breakdown); type: cell-based, mice; conditions: for relative GVB (relative effect): indexed against control (0) and FF-MAS (100); for GVB (percentage of oocytes undergoing germinal vesicle breakdown): oocytes cultured 24 hours at 37° C. in Hx-medium (3 mM hypoxanthine)
Experimental: An agonistic oocyte assay can be performed as follows:
Oocytes were obtained from immature female mice (C57BL/6J×DBA/2J F1, Bomholtgaard, Denmark) weighing 13-16 grams, that were kept under controlled temperature (20-22° C.), light (lights on 06.00-18.00) and relative humidity (50-70%). The mice received an intra-peritoneal injection of 0.2 ml gonadotropins (Gonal-F, Serono) containing 20 IU FSH and 48 hours later the animals were killed by cervical dislocation.
The ovaries were dissected out and the oocytes were isolated in Hx-medium (see below) under a stereo microscope by manual rupture of the follicles using a pair of 27 gauge needles. Spherical oocytes displaying an intact germinal vesicle (hereinafter designated GV) were divided in cumulus enclosed oocytes (hereinafter designated CEO) and naked oocytes (hereinafter designated NO) and placed in a-minimum essential medium (α-MEM without ribonucleosides, Gibco BRL, Cat. No. 22561) supplemented with 3 mg/ml bovine serum albumin (BSA, Sigma Cat. No. A-7030), 5 mg/ml human serum albumin (HSA, Statens Seruminstitute, Denmark), 0.23 mM pyruvate (Sigma, Cat. No S-8636), 2 mM glutamine (Flow Cat. No. 16-801), 100 IU/ml penicillin and 100 μg/ml streptomycin (Flow, Cat No. 16-700). This medium was supplemented with 3 mM hypoxanthine (Sigma Cat. No. H-9377) and designated Hx-medium.
The oocytes were rinsed three times in Hx-medium and oocytes of uniform size were divided into groups of CEO and NO. CEO and NO were cultured in 4-well multidishes (Nunclon, Denmark) in which each well contained 0.4 ml of Hx-medium. One control well (i.e., 35-45 oocytes cultured in identical medium with no addition of test compound) was always cultured simultaneously with 3 test wells (35-45 oocytes per well supplemented with test compound).
The oocytes were cultured in a humidified atmosphere of 5% CO2 in air for 24 hours at 37° C. By the end of the culture period, the number of oocytes with germinal vesicle (hereinafter designated GV), germinal vesicle breakdown (hereinafter designated GVB) and polar bodies (hereinafter designated PB), respectively, were counted using a stereomicroscope (Wildt, Leica MZ 12). The percentage GVB, defined as percentage of oocytes undergoing GVB per total number of oocytes in that well, was calculated as:
% GVB=(number of GVB+number of PB/total number oocytes)×100.
The % PB was defined as percentage of oocytes displaying one extruded polar body per total number of oocytes in that well.
The effect of the tested compounds has been indexed against control level and 4,4-5 dimethyl-5β-cholesta-8,14,24-trien-39-ol (hereinafter designated FF-MAS) where controls and FF-MAS are indexed to an effect of 0 and 100, respectively. The relative effect of the tested compound is calculated as follows: […]

[3] = system: naked oocytes (NO); conditions: previously shown, Byskov et al. Nature 374 (1995), 559-562; cited from earlier work
[4] = system: oocytes; assay: in vitro fertilization (IVF) assay; type: cell-based, mice; conditions: GVB oocytes after 18 hours culture, examined 20-22 hours after insemination; control 22%
Experimental: An in vitro fertilization (IVF) assay can be performed as follows:
Naked oocytes (NO) and cumulus enclosed oocytes (CEO) from immature mice (C57B1 16J×DBAJ/2)F, were isolated and cultured under the same conditions as described for the agonistic oocyte assay (Example 5). […] The dishes were then incubated under defined gas conditions (5% CO2) at 37° C. in a modified (α-MEM IVF-medium. Neither the insemination medium nor the IVF-medium contained hypoxanthine. Examination of the oocytes was carried out 20-22 hours after insemination, in order to check fertilization and to record the number of 2-cell embryos. The percentage fertilization (=fertilization rate) was determined from counts of oocytes that had cleaved into two-cell embryos.

In the case of “(25R)-160.26-Dihydroxycholest-5-ene [Example 4]”, the “PB (oocytes with polar body)” value [1] is reported as 5%, the “relative GVB (relative effect)” value [2] is reported as 73% and the “GVB (percentage of oocytes undergoing germinal vesicle breakdown)” value [2] is reported as 63%.

In the case of CC(C)=CCC[C@@H](C)[C@H]1CC=C2C3=C(CC[C@@]21C)[C@@]1(C)CC[C@H](O)C(C)(C)[C@@H]1CC3 [FF-MAS, 4,4-Dimethyl-5α-cholesta-8,14,24-trien-3β-ol], the “induction of meiosis in NO in vitro” value [3] is given as “induce meiosis”.

In the case of CC(C)CCC[C@@H](C)[C@H]1[C@@H](O)C[C@H]2[C@@H]3CC=C4CCCC[C@]4(C)[C@H]3CC[C@]12C [Example 1, 16β-Hydroxycholest-5-ene], the “fertilization rate (oocytes cleaved into two-cell embryos)” value [4] is reported as 62%, the melting point is reported as 107 to 108 °C and the “relative GVB (relative effect)” value [2] is reported as 88%. The “GVB (percentage of oocytes undergoing germinal vesicle breakdown)” value [2] was 72%.
